These results are taken from PubChem BioAssay AID1963428 (Molecular Pharmacology Branch, DTP, NCI, 2024).

Where “and” joins values, the source holds several entries; their conditions need not be identical. Identical values can stand only once. Where only a bound is given, the exact number is not on record here.

In the experiment the test system is 171881-019-R-J1-PDC complex spheroid growth, % test/control. Briefly: Anticancer human tumor 171881-019-R-J1-PDC patient-derived invasive breast carcinoma cell line growth inhibition [Asc]. Particulars: for viability, T/C: stronger effect = lower value. The procedure, abridged: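 Complex solid-tumor spheroids incorporating human endothelial and mesenchymal stem cells received single agents or combinations over half-log dilution ranges anchored to clinical Cmax.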
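Throughout, for viability, T/C: spheroids exposed to compounds for 7 days.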

As usually defined, the viability, T/C is the result in the treated group divided by that in the control group, in per cent. The term IC50 denotes the concentration needed to halve the response being measured. With `CCN1C(C(=O)NC23CCC(C(=O)O)(CC2)CC3)C(c2cccc(Cl)c2F)C2(C(=O)Nc3cc(Cl)ccc32)C12CCCCC2` (stereo not drawn), where the note is “compound 0.00949 µM”, the viability, T/C is 76.5% and 112%. Besides, the IC50 is > 3000 nM (compound alone, run of 09/27/2022) and > 3000 nM (curve of compound).

As to `O=C(c1ccc(F)c(F)c1Nc1ccc(I)cc1F)N1CC(O)([C@@H]2CCCCN2)C1` + Cc1c(S(C)(=O)=O)c(-c2cc(F)cc(N3CCN(c4ccc(NS(=O)(=O)c5ccc(NC(CCN6CCC(C(=O)OCCCP(=O)(O)O)CC6)CSc6ccccc6)c(S(=O)(=O)C(F)(F)F)c5)cc4)CC3)c2)c(-c2ccc(Cl)cc2)n1C(C)C, the half-inhibitory concentration (IC50) is, setting by setting: (curve of first compound, second compound 0.1 µM) 207 nM; (curve of first compound, second compound 0.316 µM) 164 nM; (curve of first compound, second compound 1 µM) 125 nM; (curve of first compound, second compound 3.16 µM) 87.3 nM; (curve of first compound, second compound 10 µM) 106 nM. The viability, T/C is, setting by setting: (second compound 0.1 µM, first compound 0.00316 µM) 98.9%; (second compound 0.1 µM, first compound 0.01 µM) 110%; (second compound 0.1 µM, first compound 0.0316 µM) 222%; (second compound 0.1 µM, first compound 0.1 µM) 97.6%; (second compound 0.1 µM, first compound 0.316 µM) 25.8%; (second compound 0.1 µM, first compound 1 µM) 18.8%. For the same compound, the viability, T/C (second compound 0.316 µM, first compound 0.00316 µM) is 109%; the viability, T/C (second compound 0.316 µM, first compound 0.01 µM) was 194%; the viability, T/C (second compound 0.316 µM, first compound 0.0316 µM) was 186%; the viability, T/C (second compound 0.316 µM, first compound 0.1 µM) is 75.9%; the viability, T/C (second compound 0.316 µM, first compound 0.316 µM) was 18.7%; the viability, T/C (second compound 0.316 µM, first compound 1 µM) was 12.3%. Moreover, the viability, T/C (second compound 1 µM, first compound 0.00316 µM) was 136%; the viability, T/C (second compound 1 µM, first compound 0.01 µM) was 193%; the viability, T/C (second compound 1 µM, first compound 0.0316 µM) is 158%; the viability, T/C (second compound 1 µM, first compound 0.1 µM) is 59.2%; the viability, T/C (second compound 1 µM, first compound 0.316 µM) is 13.7%; the viability, T/C (second compound 1 µM, first compound 1 µM) was 6.11%. Further, the viability, T/C is 156% (second compound 3.16 µM, first compound 0.00316 µM); 182% (second compound 3.16 µM, first compound 0.01 µM); 115% (second compound 3.16 µM, first compound 0.0316 µM); 44.8% (second compound 3.16 µM, first compound 0.1 µM); 8.8% (second compound 3.16 µM, first compound 0.316 µM); 3.61% (second compound 3.16 µM, first compound 1 µM). The viability, T/C is, setting by setting: (second compound 10 µM, first compound 0.00316 µM) 175%; (second compound 10 µM, first compound 0.01 µM) 174%; (second compound 10 µM, first compound 0.0316 µM) 118%; (second compound 10 µM, first compound 0.1 µM) 54.9%; (second compound 10 µM, first compound 0.316 µM) 12%; (second compound 10 µM, first compound 1 µM) 3.48%.
